Results on 33 substances are retold here after publication PMC10878854, “Identification, structural characterization, and molecular dynamic simulation of ACE inhibitory peptides in whey hydrolysates from Chinese Rushan cheese by-product” (Food Chemistry: X, 2024).

No end group written: not given here.

The target of the first data set is T1, ACE (Oryctolagus cuniculus, UniProt P12822).
T1 sequence (P12822 34-1310): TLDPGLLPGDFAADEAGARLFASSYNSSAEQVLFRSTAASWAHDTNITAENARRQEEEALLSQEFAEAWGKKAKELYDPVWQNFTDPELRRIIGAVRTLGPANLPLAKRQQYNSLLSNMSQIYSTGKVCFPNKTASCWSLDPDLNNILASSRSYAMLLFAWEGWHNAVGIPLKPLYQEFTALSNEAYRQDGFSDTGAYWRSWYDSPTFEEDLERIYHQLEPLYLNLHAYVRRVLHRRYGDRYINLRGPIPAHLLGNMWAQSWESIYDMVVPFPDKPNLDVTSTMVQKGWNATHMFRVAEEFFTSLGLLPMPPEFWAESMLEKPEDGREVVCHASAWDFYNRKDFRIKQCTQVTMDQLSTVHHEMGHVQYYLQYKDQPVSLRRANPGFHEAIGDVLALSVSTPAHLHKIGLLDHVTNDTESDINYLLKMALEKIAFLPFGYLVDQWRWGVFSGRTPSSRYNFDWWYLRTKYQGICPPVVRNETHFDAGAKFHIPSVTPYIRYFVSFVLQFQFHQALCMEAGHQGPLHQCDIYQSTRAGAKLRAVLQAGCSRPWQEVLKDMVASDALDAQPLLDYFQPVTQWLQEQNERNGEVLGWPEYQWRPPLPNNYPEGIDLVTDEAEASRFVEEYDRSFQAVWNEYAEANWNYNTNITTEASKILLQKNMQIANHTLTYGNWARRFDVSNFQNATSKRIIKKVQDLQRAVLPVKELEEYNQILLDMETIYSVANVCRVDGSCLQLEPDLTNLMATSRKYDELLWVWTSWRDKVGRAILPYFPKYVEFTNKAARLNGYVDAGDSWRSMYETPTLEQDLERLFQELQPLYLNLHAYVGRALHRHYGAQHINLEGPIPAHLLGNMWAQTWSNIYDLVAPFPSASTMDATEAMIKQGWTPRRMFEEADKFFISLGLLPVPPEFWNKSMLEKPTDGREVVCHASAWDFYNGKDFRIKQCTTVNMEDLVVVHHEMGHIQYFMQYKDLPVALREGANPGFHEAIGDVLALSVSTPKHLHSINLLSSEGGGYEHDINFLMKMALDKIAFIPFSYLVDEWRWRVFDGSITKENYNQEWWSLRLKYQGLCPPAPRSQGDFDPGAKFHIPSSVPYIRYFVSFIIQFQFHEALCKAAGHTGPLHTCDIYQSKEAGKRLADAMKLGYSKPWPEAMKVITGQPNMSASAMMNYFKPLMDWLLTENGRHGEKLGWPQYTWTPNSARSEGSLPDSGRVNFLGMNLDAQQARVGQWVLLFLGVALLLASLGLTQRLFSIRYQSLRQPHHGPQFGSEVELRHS
Experiment: not given
As to conditions: ACEIPs with mixed inhibitory patterns; ref Chen et al., 2020; Xie et al., 2022; cited from earlier work.
Turning to “LSGYGP [literature mixed-pattern ACEIP derived from tilapia]”, the ACE inhibition pattern entry is given as “mixed”.

As for “SLPEW [literature mixed-pattern ACEIP derived from alpha-lactalbumin]”, the ACE inhibition pattern result is on record as “mixed”. In the case of “VSLPEW [literature mixed-pattern ACEIP derived from alpha-lactalbumin]”, the ACE inhibition pattern entry is “mixed”.

The same data set, now with this note: food-derived non-competitive ACEIPs; ref Xie et al., 2022; Paisansak et al., 2021; cited from earlier work.
Consider GVSLPEW, for which the ACE inhibition pattern result is on record as “non-competitive”. For the substance GYGGVSLPEW, the ACE inhibition pattern entry is listed as “non-competitive”. Consider KIGSRSRFDVT, for which the ACE inhibition pattern entry is “non-competitive”. For the substance VGINYW, the ACE inhibition pattern entry is given as “non-competitive”.

The same data set, now with this note: peptides derived from eel bone; ref Shao, 2022; cited from earlier work.
Consider GGPGPSGPR, for which the “IC50 (ACE inhibitory activity)” value is 758 µg/mL.

For the substance GPAGPR, the “IC50 (ACE inhibitory activity)” value is 1246 µg/mL. Regarding GPIGPPGPR, the “IC50 (ACE inhibitory activity)” value is 1441 µg/mL. Turning to GPMGPR, the “IC50 (ACE inhibitory activity)” value was 2247 µg/mL. With GPSGAPGPR, the “IC50 (ACE inhibitory activity)” value is 1022 µg/mL.

For the substance PMGPR, the “IC50 (ACE inhibitory activity)” value is 1470 µg/mL.

The data set is the same for the next values; noted with them: peptides derived from large yellow croaker; ref Li, 2021; cited from earlier work.
Consider LGYSF, for which the “IC50 (ACE inhibitory activity)” value is 510 µg/mL. Consider LLAGGW, for which the “IC50 (ACE inhibitory activity)” value was 490 µg/mL.

Tested on in the next data set: not given
Experiment: not given
Conditions: not given
In the case of H-FDRPFL-OH, the β-sheet content was 38.3%. H-KWEKPF-OH displayed a β-sheet content of 38%.

Tested on in a further data set: not given
Experiment: not given
Conditions: not given
This is another data set of the same source.
As to H-FDRPFL-OH, the α-helix content was 22.4%. Regarding H-KWEKPF-OH, the α-helix content worked out at 20.2%.

Tested on in another data set: not given
Experiment: not given
The note with it: 90 % homology to known functional peptides; ref BIOPEP, EROP-Moscow, MBPDB databases; cited from earlier work. From the text:
Supplement mmc2.doc, table 1: Table S2. Bioactive peptides identified in Rushan cheese whey hydrolysates (RCWH). | column: Potential bioactive
Consider AVPYPQR, for which the Potential bioactive result is “ACE inhibitor, Antimicrobial, Antioxidative”. For the substance DKIHPF, the Potential bioactive result is on record as “ACE inhibitor”.

In the case of DKVGINY, the Potential bioactive result is “ACE inhibitor”. Turning to DKVGINYW, the Potential bioactive entry was “ACE inhibitor”. With KVLPVPQK, the Potential bioactive result is on record as “ACE inhibitor, Antioxidative”.

On to LKPTPEGDLE, for which the Potential bioactive result is listed as “Dipeptidyl peptidase IV inhibitor”. On to MAIPPKK, for which the Potential bioactive entry is “ACE inhibitor”. Consider PFPGPIPN, for which the Potential bioactive result is listed as “ACE inhibitor”.

With SKVLPVPQ, the Potential bioactive result is listed as “ACE inhibitor”. VYPFPGPI: the Potential bioactive result is recorded as “Antihypertensive”. Regarding VYPFPGPIP, the Potential bioactive entry is given as “Antihypertensive”. Take YPFPGPI: the Potential bioactive entry is on record as “ACE inhibitor, Antioxidative, Anticancer”.

Consider YPFPGPIP, for which the Potential bioactive result was “ACE inhibitor, Antioxidative”.

Another data set addresses T1, ACE. The data set can be described thus: In-vitro ACE inhibitory activity (HHL substrate, hippuric acid absorbance at 228 nm). Type of data set: biochemical. As to conditions: synthetic peptides; 5 mM HHL, 25 mU/mL ACE, 37 °C 30 min, absorbance 228 nm; calculated from regression equations; mean ± SD, n = 3. Here is the method:
ACE inhibitory activity of whey hydrolysate fractions with different MW was assessed by a method reported by [Cushman and Cheung (1971)]. In brief, 30 μL of whey hydrolysate fraction was added to 80 μL of 5 mM HHL and incubated at 37 °C for 10 min. Then, 20 μL of 25 mU/ mL ACE was added to the mixture. The reaction was performed at 37 °C for 30 min and then stopped by adding 250 μL of 1 M HCl. Subsequently, 1.7 mL of ethyl acetate was added to the mixture to extract the released hippuric acid. After vigorous stirring for 10 s, the samples were submitted to centrifugation (TLG20M, Changsha Maijiasen Instrument Equipment Co., Ltd., China) at 5,000 rcf at 4 °C for 15 min. Then 1.4 mL of the organic phase was transferred to a fresh test tube. Ethyl acetate was evaporated by placing samples in a boiling water bath. The residue was dissolved in 3 mL of deionized water, and absorbance was measured at 228 nm by enzyme marker (Multiskan FC, Thermo Fisher Scientific). The following formula was used to calculate ACE inhibition rate: ACE-inhibition rate\%:[1-(C-D)/(A-B)]×100% Where A represents the absorbance with ACE but without the sample; B the absorbance without ACE and the sample; C the absorbance in the presence of ACE and the sample; and D the absorbance with the sample but without ACE.
Take DDFFHR [DDFFHR]: the IC50 was over 1200 µM.

For GKWEKPF [GKWEKPF], the IC50 is over 1120 µM.

Consider YDFYPR [YDFYPR], for which the concentration for half-maximal inhibition (IC50) is over 1160 µM.

Tested on in a further data set: not given
Experiment: not given
Conditions: not given
The source holds these as a separate data set.
Take H-FDRPFL-OH: the β-turn content was determined as 39.3%. The same measure, in the same setting: as for H-KWEKPF-OH, the figure is 41.7%.

As a reminder, the IC50 is the midpoint of a concentration-inhibition curve.
